One data set concerns miR-21. The experiment in a line: miR-21 luciferase sensor assay in Hela cells. The format is cell-based.
The test system of data set [1] is model of ischemia reperfusion injury (IRI). The experiment in a line: Unilateral IRI model: collagen area fraction of kidney tissue. The settings on record: for reduction in collagen area fraction (significance): IRI; for Collagen Area Fraction (#) Mean: group mean; for Collagen Area Fraction (#): 20 mg/kg. The format is in vivo, mouse. On the procedure: A model of ischemia reperfusion injury (IRI) is created in the mouse through unilateral or bilateral clamping of kidney arteries, which leads to tubule damage, inflammation, and fibrosis. Kidney dysfunction can occur either early (<5 days) or late (>7 days) in this model, with the early time points useful to test candidate agents for the treatment of acute kidney injury, and the later time points useful to model chronic fibrosis.
Anti-miR-21 compounds were tested in the unilateral IRI model. Unilateral IRI was induced for a period of 30 minutes. Treatment groups were as follows: sham IRI procedure; IRI with PBS administered subcutaneously; IRI with anti-miR-21 compound 25070 administered intraperitoneally at a dose of 20 mg/kg; the 2′-fluoro/2′-MOE modified anti-miR-21 25919 administered intraperitoneally at a dose of 20 mg/kg; and a 2′-fluoro/2′ modified mismatch anti-miR-21 (having three mismatches to the sequence of miR-21) 25319 administered intraperitoneally at a dose of 20 mg/kg. PBS or anti-miR compound was administered on days 5, 6, and 7 following IRI, and animals were sacrificed 14 days after IRI. As anti-miR compound is administered 5 days following the injury to the kidney, or later, when fibrosis has already occurred to some extent, this treatment regimen is considered a therapeutic regimen, rather than a prophylactic regimen.
Kidney tissue was collected for analysis of collagen 1A1 and collagen 3A1 expression (shown in Table 0), and collagen area fraction (shown in Table P).
A similar study was performed with the same treatment groups and additional days of treatment. In this study, treatments were administered intraperitoneally at days 5, 6, 7, 14, and 21 following the IRI procedure Animals were sacrificed on Day 27, and kidney tissue was collected for analysis of collagen 1A1 and collagen 3A1 expression, as well as collagen area fraction.

Where [2] appears, read: 4 nM oligonucleotide, Hela cells.
[3] abbreviates: 20 nM oligonucleotide, Hela cells.
The mark [4] stands for this setting: 100 nM oligonucleotide, Hela cells.
Setting [5] is: 500 nM oligonucleotide, Hela cells, two experimental replicates.
Setting [6] is: .16 nM oligonucleotide, Hela cells.
Where [7] appears, read: .8 nM oligonucleotide, Hela cells.
The mark [8] stands for this setting: Table P, unilateral IRI, 20 mg/kg intraperitoneally on days 5, 6, 7, day 14, IRI-PBS mean 15.1.
The mark [9] stands for this setting: Table P, individual animals, unilateral IRI, 20 mg/kg intraperitoneally on days 5, 6, 7, day 14.
Setting [10] is: unilateral IRI mouse, 20 mg/kg intraperitoneally on days 5, 6, 7, 14, and 21, sacrificed Day 27.
The mark [11] stands for this setting: individual animals (not same as PCR), unilateral IRI mouse, 20 mg/kg intraperitoneally on days 5, 6, 7, 14, and 21, sacrificed Day 27.

From patent publication US20120270928A1, “MICRORNA COMPOUNDS AND METHODS FOR MODULATING MIR-21 ACTIVITY” (REGULUS THERAPEUTICS INC., priority 2011, published 2012) come the findings set out here.

“And” between values parts separate entries of the source, which are not always exact repeats. Identical values can stand only once. “Also recorded” adds a separate entry of the source.

Regarding “AECSATCSAGTCSTGAUSAAGCSTAE (ACATCAGTCTGATAAGCTA; modified nucleosides, phosphorothioate linkages, chemistry not fully specified) [Compound 25070]”, the “luciferase value normalized to beta-galactosidase activity” value in the data set with miR-21 (setting [2]) worked out at 99; in the data set with miR-21 (setting [3]) it was 128; in the data set on miR-21 (setting [4]), 132; in the data set with miR-21 (setting [5]) it was 165; in the data set on miR-21 (setting [6]) it was 65; in the data set with miR-21 (setting [7]) it was 87. The “inhibition of miR-21 activity in the luciferase assay (in words)” value with miR-21 (Hela cells) was “inhibition of miR-21 in a dose-dependent manner; also recorded: potent inhibitor of miR-21 activity”. Besides, the “fold change in luciferase value relative to the mock treatment” value in the data set with miR-21 (concentration of anti-miR compound 0.2 (unit not given)) amounted to 1.04 fold change; with miR-21 (concentration of anti-miR compound 0.6 (unit not given)), 1.01 fold change; in the data set on miR-21 (concentration of anti-miR compound 1.9 (unit not given)), 1.14 fold change; in the data set on miR-21 (concentration of anti-miR compound 5.6 (unit not given)) it was 6.22 fold change; in the data set with miR-21 (concentration of anti-miR compound 16.7 (unit not given)) it was 11.28 fold change; in the data set with miR-21 (concentration of anti-miR compound 50.0 (unit not given)) it was 11.00 fold change. Moreover, the “reduction in collagen area fraction (significance)” value in data set [1] (20 mg/kg intraperitoneally on days 5, 6, and 7, sacrifice 14 days after IRI) is recorded as “statistically significant reduction”; in data set [1] (intraperitoneally at days 5, 6, 7, 14, and 21, sacrifice Day 27) it was “statistically significant reduction”. Further, the “Collagen Area Fraction (#) Mean” value was 9.7 # in data set [1] (setting [8]) and 10.1 in data set [1] (setting [10]). The “Collagen Area Fraction (#)” value is 10.266 # and 11.772 # and 10.267 # and 8.404 # and 7.862 # and 6.975 # and 8.381 # and 13.773 # in data set [1] (setting [9]); 7.354 and 9.241 and 9.589 and 11.573 and 8.182 and 10.695 and 13.978 and 10.12 in data set [1] (setting [11]).
Regarding “UECEAFAFCFAFUFCFAFGFUFCEUEGEAFUFAFAFGFCFUEAE (antisense TCAACATCAGTCTGATAAGCTA; listed as DNA, chemistry not fully specified) [Compound 25919, reference compound]”, the “luciferase value normalized to beta-galactosidase activity” value in the data set with miR-21 (setting [2]) came out at 84; in the data set on miR-21 (setting [3]) it was 114; in the data set on miR-21 (setting [4]), 171; with miR-21 (setting [5]) it was 202; with miR-21 (setting [6]), 40; with miR-21 (setting [7]), 53. The results for the “Collagen Area Fraction (#) Mean” value in data set [1] (setting [8]) and in data set [1] (setting [10]) were 8.2 # and 12.8, respectively. The “Collagen Area Fraction (#)” value in data set [1] (setting [9]) is 7.093 # and 8.254 # and 8.095 # and 8.559 # and 8.681 # and 6.31 # and 8.416 # and 9.905 #; in data set [1] (setting [11]), 11.882 and 9.755 and 9.506 and 12.654 and 20.319 and 11.551 and 12.224 and 14.468.
